The values below come from paper PMC9886550, “Molecular mechanism of topoisomerase poisoning by the peptide antibiotic albicidin” (Nature Catalysis, 2023).

≈ marks a conversion by molar mass, not a printed value. Like-named read-outs stand apart in the source and are kept apart here.

One test deals with E. coli BW25113. Nature of the test: MIC determination (microdilution, M07-A9). It is filed as cell-based. The method, then: (§1) MIC values were determined according to the ninth edition of the Approved Standard M07-A9. The test was carried out for six different bacterial strains (E. coli DSM 1116 (Gram-negative), E. coli BW25113 (Gram-negative), B. subtilis DSM 10 (Gram-positive), M. luteus DSM 1790 (Gram-positive), M. phlei DSM 750 (Gram-positive), S. typhimurium TA 100 (Gram-negative). First, 20 µl of glycerol stock of each strain was inoculated in 20 ml LB (Lennox) followed by incubation overnight at 37 °C, 200 r.p.m. The test inoculum was adjusted by the 0.5 McFarland Standard. Within 15 min of preparation, the adjusted inoculum suspension was diluted in MHBII so that each well contained approximately 5 × 10^5 c.f.u. ml^−1 in a final volume of 100 µl. Then, 95 µl of the inoculum was applied per well and 5 µl of the (diluted) albicidins was added. For dilutions, the dry powders were dissolved in dimethylsulfoxide (DMSO) with a concentration of 2.56 mg ml^−1, and the obtained stock solutions were further diluted in DMSO. Next, 5 µl of each antibiotic dilution was applied to the microdilution tray to reach final concentrations of 8 to 0.016 µg ml^−1. One row of each well plate served as a growth control without antibiotic and another row of the microdilution tray served as a sterility control (only MHBII media). The antimicrobial effect of the solvent was tested by adding 5 µl DMSO to several wells. Purity check and cell titre control were performed according to International Standard M07-A9 on Mueller–Hinton II Agar. Both microdilution trays and agar plates were incubated at 37 °C for 20 h.
For orientation: Broth dilution looks for growth in wells or tubes with falling amounts of substance.

The next test concerns S. typhimurium TA100. Description: MIC determination (microdilution, M07-A9). The format is cell-based. As to the method:
as §1

The test system of a further test is E. coli DSM116. Description: MIC determination (microdilution, M07-A9). It is filed as cell-based. The following applies: Escherichia coli, DSM116, E. coli DSM116, read-out: MIC. The method, then: as §1
Another test relates to B. subtilis DSM10. Description: MIC determination (microdilution, M07-A9). It is filed as cell-based. The following applies: Bacillus subtilis. The method, then:
as §1

The next test relates to M. phlei DSM750. Nature of the test: MIC determination (microdilution, M07-A9). The format is cell-based. The following applies: Mycolicibacterium phlei. The method, then:
as §1

The next test has as its system M. luteus DSM1790. Nature of the test: MIC determination (microdilution, M07-A9). The format is cell-based. The method, then:
as §1

Another test concerns the target E. coli Topo IV (Escherichia coli, UniProt P0AFI2+P20083). Nature of the test: E. coli Topo IV relaxation assay. It is filed as biochemical. The following applies: tested 0.1, 1, 10, 100 µM. The method, then: E. coli Topo IV relaxation assays were set up in the same way as supercoiling assays with some modifications. The substrate was negatively supercoiled DNA, E. coli Topo IV relaxation buffer (50 mM K-HEPES pH 7.6, 100 mM potassium glutamate, 10 mM magnesium acetate, 10 mM DTT, 1 mM ATP and 0.05 mg ml^−1 BSA) and reactions were incubated for 1 h. Reactions were stopped in the same way as supercoiling assays.
Results were visualized by agarose gel electrophoresis: 1% agarose Tris-acetate-EDTA (TAE) gels were run without ethidium bromide (supercoiling) or with 10 µg ml^−1 ethidium bromide (cleavage) at 8 V cm^−1.
Supplementary Figure 11. Activity of albicidin and Albi-1/2/3 on E. coli topoisomerase IV. a. Plasmid relaxation activity of E. coli topo IV in the presence of albicidin, Albi-1, Albi-2 and Albi-3. First lane: negatively supercoiled pBR322; second lane: innate relaxation activity of E. coli topo IV (12.5 nM); third lane: effect of 20 µM CFX; subsequent lanes: effect of increasing compound concentration (0.1, 1, 10, 100 […]
higher concentration. b. Cleavage activity of E. coli topo IV in the presence of albicidin, Albi-1, Albi-2 and Albi-3. First lane: negatively supercoiled pBR322; second lane: innate cleavage activity of E. coli topo IV (15 nM); third lane: effect of 20 µM CFX; subsequent lanes: effect of increasing compound concentration (0.1, 1, 10, 100 µM). […]
concentration. All experiments were carried out in triplicates and representative gels […]
(1 picture or pasted object on this page, not shown here)

The test system of test [1] is selected Gram-negative and Gram-positive microorganisms. Nature of the test: MIC activity groups over all tested strains. Details: key: a: most potent; b: intermediate; least active. The format is cell-based. The following applies: MIC panel. The method, then: as §1
Where [2] appears, read: E. coli BW25113, second value in cell (biological replicate).
The mark [3] stands for this setting: Escherichia coli, BW25113, E. coli strain not named, read-out: MIC for E. coli.
Setting [4] is: Escherichia coli, E. coli BW25113, first value in cell (biological replicate), read-out: MIC.
[5] abbreviates: Salmonella enterica, first value in cell (biological replicate), read-out: MIC.
Setting [6] is: second value in cell (biological replicate).
Where [7] appears, read: first value in cell (biological replicate).
The mark [8] stands for this setting: Micrococcus luteus, first value in cell (biological replicate), read-out: MIC.

Chain of E. coli Topo IV (P0AFI2 whole entry): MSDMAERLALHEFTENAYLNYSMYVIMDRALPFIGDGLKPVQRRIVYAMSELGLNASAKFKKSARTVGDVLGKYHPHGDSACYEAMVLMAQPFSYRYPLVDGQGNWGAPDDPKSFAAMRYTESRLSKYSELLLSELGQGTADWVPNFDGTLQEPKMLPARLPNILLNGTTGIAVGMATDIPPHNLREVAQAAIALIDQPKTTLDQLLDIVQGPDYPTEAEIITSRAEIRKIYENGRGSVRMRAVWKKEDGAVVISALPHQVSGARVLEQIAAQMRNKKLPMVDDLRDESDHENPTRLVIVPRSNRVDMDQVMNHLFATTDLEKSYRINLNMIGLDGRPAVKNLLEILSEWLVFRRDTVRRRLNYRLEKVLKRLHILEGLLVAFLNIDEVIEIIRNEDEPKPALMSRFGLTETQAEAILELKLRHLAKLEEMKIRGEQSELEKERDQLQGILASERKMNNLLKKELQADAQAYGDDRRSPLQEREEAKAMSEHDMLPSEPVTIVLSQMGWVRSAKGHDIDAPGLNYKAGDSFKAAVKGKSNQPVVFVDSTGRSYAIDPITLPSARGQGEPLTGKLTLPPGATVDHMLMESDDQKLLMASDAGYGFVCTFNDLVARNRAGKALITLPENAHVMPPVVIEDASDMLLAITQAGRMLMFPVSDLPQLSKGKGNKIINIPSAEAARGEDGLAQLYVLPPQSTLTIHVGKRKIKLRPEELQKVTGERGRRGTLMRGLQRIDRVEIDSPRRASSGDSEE
Chain of E. coli Topo IV (P20083 whole entry): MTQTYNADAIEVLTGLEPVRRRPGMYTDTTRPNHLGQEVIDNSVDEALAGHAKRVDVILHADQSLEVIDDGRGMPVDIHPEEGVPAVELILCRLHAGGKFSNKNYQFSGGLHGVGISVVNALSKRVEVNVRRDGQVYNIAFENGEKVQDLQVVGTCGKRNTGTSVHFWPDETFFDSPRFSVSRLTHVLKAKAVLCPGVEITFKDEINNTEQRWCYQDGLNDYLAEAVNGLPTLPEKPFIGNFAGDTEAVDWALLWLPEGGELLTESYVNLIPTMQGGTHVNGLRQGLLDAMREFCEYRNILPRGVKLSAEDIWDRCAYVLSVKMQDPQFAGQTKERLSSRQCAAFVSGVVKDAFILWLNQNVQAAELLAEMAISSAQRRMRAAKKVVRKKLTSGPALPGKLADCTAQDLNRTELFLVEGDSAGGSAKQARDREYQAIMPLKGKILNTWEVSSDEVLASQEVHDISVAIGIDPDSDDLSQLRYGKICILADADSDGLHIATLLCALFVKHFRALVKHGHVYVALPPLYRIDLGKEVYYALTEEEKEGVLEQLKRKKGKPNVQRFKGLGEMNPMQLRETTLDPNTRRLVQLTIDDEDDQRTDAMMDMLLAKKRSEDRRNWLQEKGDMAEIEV

Regarding `CC(C)Oc1c(NC(=O)c2ccc(NC(=O)[C@H](Cc3c[nH]nn3)NC(=O)c3ccc(NC(=O)c4ccc(C#N)cc4)cn3)cn2)ccc(C(=O)Nc2ccc(C(=O)O)cc2)c1O` [Albi-1], the MIC (as a rule, the lowest concentration found to suppress growth) is <0.016 <0.016 µg ml^−1 against E. coli BW25113 (setting [2]); at most 0.016 µg/mL in the test with E. coli BW25113 (setting [3]); below 0.016 µg/mL in the test with E. coli BW25113 (setting [4]); below 0.016 µg/mL in the test on S. typhimurium TA100 (setting [5]); <0.016 <0.016 µg ml^−1 in the test on S. typhimurium TA100 (setting [6]); 0.031 µg/mL (≈ 0.037 µM) in the test on E. coli DSM116 (setting [7]). Further, the minimal inhibitory concentration (MIC) in the test on E. coli DSM116 (setting [6]) is 0.031 µg/mL (≈ 0.037 µM); in the test with B. subtilis DSM10 (setting [7]), 0.031 µg/mL (≈ 0.037 µM); in the test on B. subtilis DSM10 (setting [6]), 0.063 µg/mL (≈ 0.0752 µM); in the test with M. phlei DSM750 (setting [7]), 0.25 µg/mL (≈ 0.298 µM); with M. phlei DSM750 (setting [6]) it was 0.5 µg/mL (≈ 0.597 µM); in the test with M. luteus DSM1790 (setting [8]), below 0.016 µg/mL. The minimum inhibitory concentration (MIC) against M. luteus DSM1790 (setting [6]) was <0.016 <0.016 µg ml^−1. Also, at E. coli Topo IV, the “concentration required for full inhibition of Topo IV relaxation activity” value is given as 10 µM. In test [1], the “activity group (superscript letter)” value is reported as “Albi-1^a”.
As to `COc1c(NC(=O)c2ccc(NC(=O)c3ccc(NC(=O)[C@H](Cc4c[nH]nn4)NC(=O)c4ccc(NC(=O)c5ccc6cc(O)ccc6c5)cc4)cn3)c(OCCN)c2O)ccc(C(=O)O)c1O` [Albi-2], the MIC against E. coli BW25113 (setting [2]) came out at 4.0 µg/mL (≈ 4.32 µM); in the test on E. coli BW25113 (setting [3]) it was 4 µg/mL (≈ 4.32 µM); in the test with E. coli BW25113 (setting [4]), 4 µg/mL (≈ 4.32 µM); with S. typhimurium TA100 (setting [5]) it was 0.5 µg/mL (≈ 0.541 µM); against S. typhimurium TA100 (setting [6]), 0.5 µg/mL (≈ 0.541 µM); in the test with E. coli DSM116 (setting [7]), 2 µg/mL (≈ 2.16 µM). The MIC is 4 µg/mL (≈ 4.32 µM) with E. coli DSM116 (setting [6]); above 8 µg/mL with B. subtilis DSM10 (setting [7]); above 8 µg/mL with B. subtilis DSM10 (setting [6]); above 8 µg/mL in the test on M. phlei DSM750 (setting [7]); above 8 µg/mL against M. phlei DSM750 (setting [6]); above 8 µg/mL in the test with M. luteus DSM1790 (setting [8]). For the same molecule, in the test on M. luteus DSM1790 (setting [6]), the minimal inhibitory concentration (MIC) was >8.0 >8.0 µg ml^−1. The “increase in MIC for E. coli compared with the parent compound” value with E. coli BW25113 (vs albicidin) was 60 fold. In addition, at E. coli Topo IV, the “concentration required for full inhibition of Topo IV relaxation activity” value is listed as 100 µM. For the same molecule, the “activity group (superscript letter)” value in test [1] is given as “Albi-2^b”.
With `COc1c(NC(=O)c2ccc(NC(=O)c3ccc(NC(=O)[C@H](Cc4c[nH]nn4)NC(=O)c4ccc(NC(=O)c5ccc6nc(C)ccc6c5)cc4)cn3)c(OC)c2O)ccc(C(=O)O)c1O` [Albi-3], the minimal inhibitory concentration (MIC) in the test with E. coli BW25113 (setting [2]) is <0.016 <0.016 µg ml^−1; in the test on E. coli BW25113 (setting [3]), below 0.016 µg/mL; with E. coli BW25113 (setting [4]), below 0.016 µg/mL; in the test with S. typhimurium TA100 (setting [5]) it was below 0.016 µg/mL; against S. typhimurium TA100 (setting [6]), <0.016 <0.016 µg ml^−1; with E. coli DSM116 (setting [7]) it was below 0.016 µg/mL. For the same molecule, the minimal inhibitory concentration (MIC) with E. coli DSM116 (setting [6]) is below 0.016 µg/mL; against B. subtilis DSM10 (setting [7]), 0.063 µg/mL (≈ 0.0704 µM); with B. subtilis DSM10 (setting [6]), 0.125 µg/mL (≈ 0.14 µM); with M. phlei DSM750 (setting [7]), 0.5 µg/mL (≈ 0.559 µM); with M. phlei DSM750 (setting [6]) it was 1 µg/mL (≈ 1.12 µM); with M. luteus DSM1790 (setting [8]), 0.063 µg/mL (≈ 0.0704 µM). Further, in the test with M. luteus DSM1790 (setting [6]), the MIC was found to be 0.063 µg/mL (≈ 0.0704 µM). In addition, the “concentration required for full inhibition of Topo IV relaxation activity” value at E. coli Topo IV is 10 µM.
As for `COc1c(NC(=O)c2ccc(NC(=O)c3ccc(NC(=O)[C@H](CC#N)NC(=O)c4ccc(NC(=O)/C(C)=C/c5ccc(O)cc5)cc4)cc3)c(OC)c2O)ccc(C(=O)O)c1O` [Albicidin], the MIC in the test with E. coli BW25113 (setting [2]) is 0.063 µg/mL (≈ 0.0747 µM); in the test with E. coli BW25113 (setting [4]) it was 0.063 µg/mL (≈ 0.0747 µM); in the test on S. typhimurium TA100 (setting [5]) it was 0.063 µg/mL (≈ 0.0747 µM); in the test with E. coli DSM116 (setting [7]), 0.063 µg/mL (≈ 0.0747 µM); in the test on E. coli DSM116 (setting [6]), 0.063 µg/mL (≈ 0.0747 µM); in the test on B. subtilis DSM10 (setting [7]), below 0.25 µg/mL. The MIC was 0.25 µg/mL (≈ 0.297 µM) with B. subtilis DSM10 (setting [6]); 2 µg/mL (≈ 2.37 µM) in the test with M. phlei DSM750 (setting [7]); 2 µg/mL (≈ 2.37 µM) in the test with M. phlei DSM750 (setting [6]); 1 µg/mL (≈ 1.19 µM) in the test with M. luteus DSM1790 (setting [8]); 1.0 µg/mL (≈ 1.19 µM) against M. luteus DSM1790 (setting [6]). At E. coli Topo IV, the “concentration required for full inhibition of Topo IV relaxation activity” value is on record as 100 µM. Besides, the “activity group (superscript letter)” value in test [1] was “Albicidin^a”.
